Results on nine molecules are retold here after US9199943B2, “2-(poly-substituted aryl)-6-amino-5-halo-4-pyrimidinecarboxylic acids and their use as herbicides” (Dow AgroSciences, LLC., priority 2006, dated 2015).

Type in all cases: in vivo
For assay [1], the system named is ABUTH = velvetleaf (Abutilon theophrasti). Nature of the assay: General postemergence herbicidal activity, velvetleaf. The conditions noted are these: Abutilon theophrasti, post-emergence, 336 h; post-emergent, 140 g ai/ha, visual score after 14 days (0 no injury, 100 complete kill). How it is done:
(§1) Seeds or nutlets of the desired test plant species were planted in Sun Gro MetroMix® 306 planting mixture, which typically has a pH of 6.0 to 6.8 and an organic matter content of about 30 percent, in plastic pots with a surface area of 64 square centimeters. When required to ensure good germination and healthy plants, a fungicide treatment and/or other chemical or physical treatment was applied. The plants were grown for 7-21 days in a greenhouse with an approximate 15 hour photoperiod which was maintained at about 23-29° C. during the day and 22-28° C. during the night. Nutrients and water were added on a regular basis and supplemental lighting was provided with overhead metal halide 1000-Watt lamps as necessary. The plants were employed for testing when they reached the first or second true leaf stage.
(§2) A weighed amount, determined by the highest rate to be tested, of each test compound was placed in a 25 mL glass vial and was dissolved in 4 mL of a 97:3 v/v (volume/volume) mixture of acetone and dimethyl sulfoxide (DMSO) to obtain concentrated stock solutions. […] The concentrated stock solutions obtained were diluted with 20 mL of an aqueous mixture containing acetone, water, isopropyl alcohol, DMSO, Atplus 411F crop oil concentrate, and Triton X-155 surfactant in a 48.5:39:10:1.5:1.0:0.02 v/v ratio to obtain spray solutions containing the highest application rates. Additional application rates were obtained by serial dilution of 12 mL of the high rate solution into a solution containing 2 mL of 97:3 v/v (volume/volume) mixture of acetone and dimethyl sulfoxide (DMSO) and 10 mL of an aqueous mixture containing acetone, water, isopropyl alcohol, DMSO, Atplus 411F crop oil concentrate, and Triton X-155 surfactant in a 48.5:39:10:1.5:1.0:0.02 v/v ratio to obtain ½×, ¼×, ⅛× and 1/16× rates of the high rate. Compound requirements are based upon a 12 mL application volume at a rate of 187 L/ha. Formulated compounds were applied to the plant material with an overhead Mandel track sprayer equipped with a 8002E nozzles calibrated to deliver 187 L/ha over an application area of 0.503 square meters at a spray height of 18 inches (43 cm) above the average plant canopy height. Control plants were sprayed in the same manner with the solvent blank.
(§3) The treated plants and control plants were placed in a greenhouse as described above and watered by sub-irrigation to prevent wash-off of the test compounds. After 14 days, the condition of the test plants as compared with that of the untreated plants was determined visually and scored on a scale of 0 to 100 percent where 0 corresponds to no injury and 100 corresponds to complete kill.
(§4) By applying the well-accepted probit analysis as described by J. Berkson in Journal of the […], 48, 565 (1953) and by D. Finney in “Probit Analysis” Cambridge University Press (1952), the above data can be used to calculate GR50 and GR80 values, which are defined as growth reduction factors that correspond to the effective dose of herbicide required to kill or control 50 percent or 80 percent, respectively, of a target plant.

In assay [2] the test system is CHEAL = lambsquarter (Chenopodium album). The assay is described as follows: General postemergence herbicidal activity, lambsquarter. The settings on record: Chenopodium album, post-emergence, 336 h; post-emergent, 140 g ai/ha, visual score after 14 days (0 no injury, 100 complete kill). How it is done:
as §1, §2, §3, §4

In assay [3] the test system is CYPDI = Cyperus difformis. Nature of the assay: Herbicidal activity in transplanted paddy rice, Cyperus difformis. The conditions noted are these: 480 h, water-injected paddy, after 20-22 days; for pest or weed control at 17.5 g/ha: 17.5 g ai/ha; for pest or weed control at 70 g/ha: 70 g ai/ha; for pest or weed control at 140 g/ha: 140 g ai/ha; for pest or weed control at 35 g/ha: 35 g ai/ha. As to the method:
(§5) Weed seeds or nutlets of the desired test plant species were planted in puddled soil (mud) prepared by mixing a non-sterilized mineral soil (28 percent silt, 18 percent clay, and 54 percent sand, with a pH of about 7.3 to 7.8 and an organic matter content of about 1.0 percent) and water at a ratio of 100 kg of soil to 19 L of water. The prepared mud was dispensed in 250 mL aliquots into 480 mL non-perforated plastic pots with a surface area of 91.6 square centimeters leaving a headspace of 3 centimeters in each pot. Rice seeds were planted in Sun Gro MetroMix® 306 planting mixture, which typically has a pH of 6.0 to 6.8 and an organic matter content of about 30 percent, in plastic plug trays. Seedlings at the second or third leaf stage of growth were transplanted into 650 mL of mud contained in 960 mL non-perforated plastic pots with a surface area of 91.6 square centimeters 4 days prior to herbicide application. The paddy was created by filling the 3 centimeter headspace of the pots with water. When required to ensure good germination and healthy plants, a fungicide treatment and/or other chemical or physical treatment was applied. The plants were grown for 4-14 days in a greenhouse with an approximate 14 hour photoperiod which was maintained at about 29° C. during the day and 26° C. during the night. Nutrients were added as Osmocote (17:6:10, N:P:K+minor nutrients) at 2 g (grams) per cup. Water was added on a regular basis to maintain the paddy flood, and supplemental lighting was provided with overhead metal halide 1000-Watt lamps as necessary. The plants were employed for testing when they reached the second or third true leaf stage. A weighed amount, determined by the highest rate to be tested, of each test compound was placed in a 120 mL glass vial and was dissolved in 20 mL of acetone to obtain concentrated stock solutions. […] The concentrated stock solutions obtained were diluted with 20 mL of an aqueous mixture containing 0.01% Tween 20 (v/v). Application rates of ½×, ¼×, ⅛× and 1/16× of the high rate were obtained by injecting an appropriate amount of the stock solution into the aqueous layer of the paddy. Control plants were treated in the same manner with the solvent blank. The treated plants and control plants were placed in a greenhouse as described above and water was added as needed to maintain a paddy flood. After 20-22 days, the condition of the test plants as compared with that of the untreated plants was determined visually and scored on a scale of 0 to 100 percent where 0 corresponds to no injury and 100 corresponds to complete kill.

Assay [4] concerns ORYSA = rice (Orysa sativa var. Japonica). Nature of the assay: Herbicidal activity in transplanted paddy rice, rice. The conditions noted are these: Oryza sativa, 480 h, water-injected paddy, rice (crop), after 20-22 days; for pest or weed control at 17.5 g/ha: 17.5 g ai/ha; for pest or weed control at 70 g/ha: 70 g ai/ha; for pest or weed control at 140 g/ha: 140 g ai/ha; for pest or weed control at 35 g/ha: 35 g ai/ha. How it is done:
as §5

The test system of assay [5] is MOOVA = Monochoria vaginalis. Nature of the assay: Herbicidal activity in transplanted paddy rice, Monochoria vaginalis. The conditions noted are these: Pontederia vaginalis, 480 h, water-injected paddy, after 20-22 days; for pest or weed control at 17.5 g/ha: 17.5 g ai/ha; for pest or weed control at 70 g/ha: 70 g ai/ha; for pest or weed control at 140 g/ha: 140 g ai/ha; for pest or weed control at 35 g/ha: 35 g ai/ha. How it is done:
as §5

The subject of assay [6] is HELAN = sunflower (Helainthus annuus). Nature of the assay: General postemergence herbicidal activity, sunflower. The settings on record: post-emergence, 336 h; post-emergent, 140 g ai/ha, visual score after 14 days (0 no injury, 100 complete kill). As to the method:
as §1, §2, §3, §4

As usually defined, the pest or weed control is how far the test organism was held down. High values mean a strong effect, low ones a weak effect. Take `CCOc1c(Cl)ccc(-c2nc(N)c(Cl)c(C(=O)OC)n2)c1F` [Compound 1, 6-amino-5-chloro-2-(4-chloro-3-ethoxy-2-fluorophenyl)-pyrimidine-4-carboxylic acid methyl ester]: the pest or weed control at 140 g/ha in assay [1], in assay [2] and in assay [6] was 100% throughout. For the same molecule, the results for the pest or weed control at 17.5 g/ha in assay [3], in assay [4] and in assay [5] were 95%, 5% and 100%, respectively.
`COC(=O)c1nc(-c2c(F)cc(Cl)c(OC)c2F)nc(N)c1Cl` [Compound 2, 6-amino-5-chloro-2-(4-chloro-2,6-difluoro-3-methoxy-phenyl)pyrimidine-4-carboxylic acid methyl ester]: the pest or weed control at 140 g/ha was determined as 90% in assay [1], 100% in assay [2] and 100% in assay [6]. For the same molecule, the pest or weed control at 70 g/ha in assay [3] came to 75%; in assay [4], 0%; in assay [5], 100%.
Consider `COC(=O)c1nc(-c2ccc(Cl)c(OC)c2F)nc(N)c1Cl` [Compound 3, 6-amino-5-chloro-2-(4-chloro-2-fluoro-3-methoxyphenyl)-pyrimidine-4-carboxylic acid methyl ester], for which the pest or weed control at 140 g/ha in assay [1], in assay [2] and in assay [6] was 100% each time. For the same molecule, the pest or weed control at 17.5 g/ha stood at 99% in assay [3], 0% in assay [4] and 100% in assay [5].
For the molecule `COC(=O)c1nc(-c2ccc(Cl)c(OC)c2Cl)nc(N)c1Cl` [Compound 6, 6-Amino-5-chloro-2-(2,4-dichloro-3-methoxyphenyl)pyrimidine-4-carboxylic acid methyl ester], the pest or weed control at 140 g/ha in assay [1] stood at 95%; in assay [2], 100%; in assay [6], 100%. The pest or weed control at 17.5 g/ha stood at 90% in assay [3], 0% in assay [4] and 100% in assay [5].
`COC(=O)c1nc(-c2ccc(Cl)c(C(F)F)c2F)nc(N)c1Cl` [Compound 7, 6-Amino-5-chloro-2-(4-chloro-3-difluoromethyl-2-fluorophenyl)pyrimidine-4-carboxylic acid methyl ester]: the pest or weed control at 140 g/ha in assay [1] amounted to 80%; in assay [2], 100%; in assay [3], 100%; in assay [4], 0%; in assay [5], 100%; in assay [6], 100%.
As for `COC(=O)c1nc(-c2ccc(Cl)c(N(C)C)c2F)nc(N)c1Cl` [Compound 8, 6-Amino-5-chloro-2-(4-chloro-3-dimethylamino-2-fluorophenyl)pyrimidine-4-carboxylic acid methyl ester], the pest or weed control at 140 g/ha in assay [1], in assay [2] and in assay [6] was 100% throughout. Besides, the pest or weed control at 35 g/ha in assay [3] turned out to be 95%; in assay [4], 0%; in assay [5] it was 100%.
Regarding `COC(=O)c1nc(-c2ccc3c(c2F)OCO3)nc(N)c1Cl` [Compound 9, 6-Amino-5-chloro-2-(4-fluorobenzo[1,3]dioxol-5-yl)pyrimidine-4-carboxylic acid methyl ester], the values for the pest or weed control at 140 g/ha in assay [1], in assay [2] and in assay [6] were 95%, 90% and 100%, respectively. Besides, the pest or weed control at 35 g/ha came to 100% in assay [3], 0% in assay [4] and 99% in assay [5].
With `COC(=O)c1nc(-c2ccc(Cl)c(OCC(F)F)c2F)nc(N)c1Cl` [Compound 10, 6-Amino-5-chloro-2-[4-chloro-3-(2,2-difluoroethoxy)-2-fluorophenyl]-pyrimidine-4-carboxylic acid methyl ester], the pest or weed control at 140 g/ha is 75% in assay [1]; 85% in assay [2]; 95% in assay [3]; 0% in assay [4]; 100% in assay [5]; 80% in assay [6].
Consider `COC(=O)c1nc(-c2ccc(Cl)c(OC)c2F)nc(N)c1Br` [Compound 13, 6-amino-5-bromo-2-(4-chloro-2-fluoro-3-methoxyphenyl)-pyrimidine-4-carboxylic acid methyl ester], for which the pest or weed control at 140 g/ha in assay [1], in assay [2] and in assay [6] was 100% each time. Also, the values for the pest or weed control at 70 g/ha in assay [3], in assay [4] and in assay [5] were 85%, 0% and 100%, respectively.
